Activity calls are given as the source filed them. No cut-off for these calls is given here.
Experiments:
[1] = target: T1, Tyrosine-protein phosphatase non-receptor type 1 (Homo sapiens) (UniProt P18031); settings: at 10 µM
T1 sequence (whole entry): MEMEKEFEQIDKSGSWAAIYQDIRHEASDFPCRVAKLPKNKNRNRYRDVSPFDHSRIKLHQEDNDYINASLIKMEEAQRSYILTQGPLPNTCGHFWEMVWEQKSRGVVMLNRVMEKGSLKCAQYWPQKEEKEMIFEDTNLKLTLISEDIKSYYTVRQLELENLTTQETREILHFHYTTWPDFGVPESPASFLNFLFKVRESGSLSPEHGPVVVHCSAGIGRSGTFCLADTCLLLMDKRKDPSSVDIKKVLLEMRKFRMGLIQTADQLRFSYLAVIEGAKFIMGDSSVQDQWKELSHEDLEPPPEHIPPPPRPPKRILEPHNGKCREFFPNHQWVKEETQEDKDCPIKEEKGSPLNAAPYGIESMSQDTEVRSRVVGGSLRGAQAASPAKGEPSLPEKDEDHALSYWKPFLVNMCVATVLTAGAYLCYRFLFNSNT
Description: Inhibition of recombinant human PTP1B using pNPP as substrate at 10 uM after 30 mins relative to control

RAW264.7 [2] = assay: Antiinflammatory activity against mouse RAW264.7 cells assessed as inhibition of LPS-induced nitric oxide production at 10 uM after 24 hrs by Griess assay relative to control; format: functional; settings: RAW264.7, 24 h
A549 [3] = assay: Antiproliferative activity against human A549 cells at 10 uM after 24 hrs by MTS assay relative to control; format: functional; settings: A549, 24 h
HepG2 = assay: Antiproliferative activity against human HepG2 cells at 10 uM after 24 hrs by MTS assay relative to control; format: functional; settings: HepG2, 24 h
SW480 = assay: Antiproliferative activity against human SW480 cells at 10 uM after 24 hrs by MTS assay relative to control; format: functional; settings: SW480, 24 h
MCF7 = assay: Antiproliferative activity against human MCF7 cells at 10 uM after 24 hrs by MTS assay relative to control; format: functional; settings: MCF7, 24 h
[4] = Inhibition of LPS-induced NF-kappaB (unknown origin) transactivation expressed in human SW480 cells administered 1 hr after LPS stimulation measured after 6 hrs by luciferase reporter gene assay; format: cell-based
Homo sapiens = assay: Inhibition of LPS-induced NF-kappaB (unknown origin) transactivation expressed in human SW480 cells at 10 uM administered 1 hr after LPS stimulation measured after 6 hrs by luciferase reporter gene assay relative to control; format: cell-based
[5] = target: T2, Tyrosinase (Homo sapiens) (UniProt P14679); settings: at 10 µM
T2 sequence (whole entry): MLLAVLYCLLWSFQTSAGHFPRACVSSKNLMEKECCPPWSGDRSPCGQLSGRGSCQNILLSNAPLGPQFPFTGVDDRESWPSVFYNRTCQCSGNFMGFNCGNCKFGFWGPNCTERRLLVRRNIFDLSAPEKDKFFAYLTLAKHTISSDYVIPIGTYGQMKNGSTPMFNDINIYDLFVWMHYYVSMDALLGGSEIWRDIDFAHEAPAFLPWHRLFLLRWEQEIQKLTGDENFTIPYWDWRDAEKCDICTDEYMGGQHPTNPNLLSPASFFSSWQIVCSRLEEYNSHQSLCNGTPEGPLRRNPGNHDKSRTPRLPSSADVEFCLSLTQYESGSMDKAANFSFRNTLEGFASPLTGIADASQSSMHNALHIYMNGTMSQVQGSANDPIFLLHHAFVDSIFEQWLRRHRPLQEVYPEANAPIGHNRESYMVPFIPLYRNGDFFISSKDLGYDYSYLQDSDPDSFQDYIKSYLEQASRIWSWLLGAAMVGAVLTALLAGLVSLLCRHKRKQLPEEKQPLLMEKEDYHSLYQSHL
Description: Inhibition of tyrosinase (unknown origin) using L-tyrosine as substrate at 10 uM preincubated for 15 mins followed by substrate addition relative to control

Tyrosinase [6] = target: T3, Tyrosinase (Homo sapiens, UniProt P14679); assay: Inhibition of tyrosinase (unknown origin) using L-tyrosine as substrate preincubated for 15 mins followed by substrate addition
T3 sequence (P14679 whole entry): T2 sequence (whole entry)

Tyrosinase [7] = target: T3, Tyrosinase; assay: Inhibition of tyrosinase (unknown origin) using L-tyrosine as substrate preincubated for 5 mins followed by substrate addition
RAW264.7 [8] = assay: Antiinflammatory activity against mouse RAW264.7 cells assessed as inhibition of LPS-induced nitric oxide production after 24 hrs by Griess assay; format: functional, cell-based; settings: RAW264.7, 24 h
RAW264.7 [9] = assay: Antiinflammatory activity against mouse RAW264.7 cells assessed as inhibition of LPS induced nitric oxide production at 20 uM […] followed by LPS challenge […] relative to control; format: functional
[10] = target: T4, Nuclear factor erythroid 2-related factor 2 (Homo sapiens) (UniProt Q16236); assay: Activation of Nrf2 (unknown origin) expressed in human HepG2 cells after 6 hrs by ARE-driven luciferase reporter gene assay relative to control; format: cell-based
T4 sequence (whole entry): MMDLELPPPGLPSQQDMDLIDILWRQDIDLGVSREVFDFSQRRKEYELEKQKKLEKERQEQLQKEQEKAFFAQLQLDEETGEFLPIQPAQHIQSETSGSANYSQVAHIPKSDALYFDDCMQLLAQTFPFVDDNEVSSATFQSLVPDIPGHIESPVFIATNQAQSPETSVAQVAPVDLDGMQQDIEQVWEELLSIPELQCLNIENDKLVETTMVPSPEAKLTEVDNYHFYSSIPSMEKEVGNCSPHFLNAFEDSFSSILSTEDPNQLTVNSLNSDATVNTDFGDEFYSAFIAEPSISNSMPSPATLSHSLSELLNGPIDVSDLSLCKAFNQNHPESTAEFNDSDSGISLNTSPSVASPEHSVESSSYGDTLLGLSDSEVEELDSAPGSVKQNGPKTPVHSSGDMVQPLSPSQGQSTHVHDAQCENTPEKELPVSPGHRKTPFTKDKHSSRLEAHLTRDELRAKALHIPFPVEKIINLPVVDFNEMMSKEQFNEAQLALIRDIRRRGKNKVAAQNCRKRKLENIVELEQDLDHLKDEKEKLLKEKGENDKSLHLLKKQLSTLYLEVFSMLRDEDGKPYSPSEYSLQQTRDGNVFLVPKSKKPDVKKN

[11] = target: T5, Tyrosine-protein phosphatase non-receptor type 1 (Homo sapiens, UniProt P18031); assay: (§1) Inhibition of recombinant human PTP1B using pNPP as substrate after 30 mins
T5 sequence (P18031 whole entry): T1 sequence (whole entry)

[12] = target: T1, Tyrosine-protein phosphatase non-receptor type 1 (Homo sapiens); assay: as §1
Mus musculus [13] = assay: Toxicity in BALB/c nude mouse xenografted with human A549 cells at 5 mg/kg, ip administered as daily dose for 16 days relative to control; format: organism-based; settings: in vivo, 384 h
Mus musculus [14] = assay: Toxicity in BALB/c nude mouse xenografted with human A549 cells assessed as change in body weight at 5 mg/kg, ip administered as daily dose for 16 days relative to control; format: organism-based; settings: in vivo, 384 h
A549 [15] = assay: Antitumor activity against human A549 cells xenografted in BALB/c nude mouse assessed as tumor growth inhibition at 5 mg/kg, ip administered as daily dose for 16 days; format: functional, organism-based

SMILES | inhibition [1] | inhibition at 10 µM (RAW264.7 [2]) | inhibition at 10 µM (A549 [3]) | inhibition at 10 µM (HepG2) | inhibition at 10 µM (SW480) | inhibition at 10 µM (MCF7) | IC50 [4] | inhibition (Homo sapiens) | inhibition [5] | IC50 (Tyrosinase [6]) | IC50 (Tyrosinase [7]) | IC50 (RAW264.7 [8]) | fold change (FC) (RAW264.7 [9]) | Activity [10] | IC50 [11] | inhibition [12] | Activity (Mus musculus [13]) | Activity (Mus musculus [14]) | TGI (A549 [15])
CC1(C)C=Cc2cc(/C=C/C(=O)c3ccc(O)cc3O)ccc2O1 | 56.5% | 0% | 2.6% | 11.1% | 7.9% | 45.7% | 5.5 µM | 60.7% | 4.4% | – | – | – | – | – | – | – | – | – | –
COc1ccc(C2COc3c(ccc(O)c3CC=C(C)C)C2=O)c(O)c1 (configuration not stated) | 9.9% | 18.1% | 9.4% | 50.3% | 27.8% | 8.7% | – | 0% | 68.3% | 5.1 µM | – | – | – | – | – | – | – | – | –
CC1(C)C=Cc2c(ccc(-c3cc4ccc(O)cc4o3)c2O)O1 | 22.8% | 21.6% | 14.4% | 15.6% | 27.7% | 15.1% | 6.4 µM | 75.8% | 41.7% | – | – | – | – | – | – | – | – | – | –
CC1(C)C=Cc2c(ccc3c2OC[C@@H](c2ccc(O)cc2O)C3)O1 [GLABRIDIN] | 3.6% | 19.8% | 12.7% | 12.1% | 19.8% | 8.8% | – | 0% | 99.7% | – | 0.09 µM | – | – | – | – | – | – | – | –
CC(C)=CCc1cc(/C=C/C(=O)c2ccc(O)cc2O)ccc1O [LICOAGROCHALCONE A] | 17.2% | 31.6% | 6.4% | 33.9% | 18.3% | 35.4% | 6.2 µM | 69% | 22.6% | – | – | – | – | – | – | – | – | – | –
CC1(C)C=Cc2c(O)ccc(C3=Cc4ccc(O)cc4OC3)c2O1 [GLABRENE] | 7.1% | 57.5% | 0% | 25.9% | 30.7% | 17.6% | – | 41.7% | 76.6% | 7.5 µM | – | 9.5 µM | – | – | – | – | – | – | –
C=CC(C)(C)c1cc(/C=C/C(=O)c2ccc(O)cc2)c(OC)cc1O [LICOAGROCHACONE A] | 14.5% | 14.2% | 17.8% | 57.9% | 13.6% | 55.9% | – | 57.2% | 10.6% | – | – | – | 0.8 | Dose-dependent effect | – | – | – | – | –
CC(C)=CCc1c(O)ccc([C@@H]2COc3c(ccc4c3C=CC(C)(C)O4)C2)c1O [HISPAGLABRIDIN A] | 80.3% | 4% | 47.6% | 26.7% | 34.9% | 21.9% | – | 13.3% | 0% | – | – | – | – | – | 5 to 7.9 µM | Dose-dependent effect | – | – | –
COc1cc([C@@H]2c3cc4c(cc3[C@@H](O[C@@H]3O[C@@H]5CO[C@@H](C)O[C@H]5[C@H](O)[C@H]3O)[C@H]3COC(=O)[C@H]23)OCO4)cc(OC)c1O [ETOPOSIDE] | – | – | – | – | – | – | – | – | – | – | – | – | – | – | – | – | Non-Toxic | Toxic | Active
CC1(C)C=Cc2cc3cc(-c4ccc(O)cc4O)c(=O)oc3cc2O1 | 56.9% | 21.2% | 0% | 14.4% | 18.1% | 24.5% | – | 0% | 84% | 2.8 µM | – | – | – | – | – | – | – | – | –

— ChEMBL document CHEMBL4052601, “Glycybridins A-K, Bioactive Phenolic Compounds from Glycyrrhiza glabra” (J Nat Prod, 2017)
